In test [1] the test system is HEK293. Description: NOD2 signaling inhibitors in MDP-stimulated cells, cell-based, uHTS, luminescence (AID 2001). Particulars: Homo sapiens. In kind it is functional.
In test [2] the target is T1, Carboxy-terminal domain RNA polymerase II polypeptide A small phosphatase 1 (Homo sapiens, UniProt Q9GZU7).
T1 sequence (Q9GZU7 whole entry): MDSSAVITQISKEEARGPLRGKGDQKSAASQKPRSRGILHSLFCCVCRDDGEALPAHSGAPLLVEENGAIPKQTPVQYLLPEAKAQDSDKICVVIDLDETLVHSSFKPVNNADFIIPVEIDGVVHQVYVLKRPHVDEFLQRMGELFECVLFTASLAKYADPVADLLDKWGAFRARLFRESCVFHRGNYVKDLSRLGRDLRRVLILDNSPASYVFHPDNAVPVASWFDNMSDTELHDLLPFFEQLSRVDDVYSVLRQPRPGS
Description: inhibitors of CTDSP1, concentration-response testing, biochemical assay, absorbance-based, actives from ultra-high-throughput screening (AID 540297). In kind it is functional.

In test [3] the target is Nucleotide-binding oligomerization domain-containing protein 2 (Homo sapiens, UniProt Q9HC29). Kind of test: NOD2 signaling inhibitors, cell-based, luminescence, uHTS, HEK293 (AID 1566). In kind it is functional.
Nucleotide-binding oligomerization domain-containing protein 2, sequence (Q9HC29 whole entry, the tested form may be a part): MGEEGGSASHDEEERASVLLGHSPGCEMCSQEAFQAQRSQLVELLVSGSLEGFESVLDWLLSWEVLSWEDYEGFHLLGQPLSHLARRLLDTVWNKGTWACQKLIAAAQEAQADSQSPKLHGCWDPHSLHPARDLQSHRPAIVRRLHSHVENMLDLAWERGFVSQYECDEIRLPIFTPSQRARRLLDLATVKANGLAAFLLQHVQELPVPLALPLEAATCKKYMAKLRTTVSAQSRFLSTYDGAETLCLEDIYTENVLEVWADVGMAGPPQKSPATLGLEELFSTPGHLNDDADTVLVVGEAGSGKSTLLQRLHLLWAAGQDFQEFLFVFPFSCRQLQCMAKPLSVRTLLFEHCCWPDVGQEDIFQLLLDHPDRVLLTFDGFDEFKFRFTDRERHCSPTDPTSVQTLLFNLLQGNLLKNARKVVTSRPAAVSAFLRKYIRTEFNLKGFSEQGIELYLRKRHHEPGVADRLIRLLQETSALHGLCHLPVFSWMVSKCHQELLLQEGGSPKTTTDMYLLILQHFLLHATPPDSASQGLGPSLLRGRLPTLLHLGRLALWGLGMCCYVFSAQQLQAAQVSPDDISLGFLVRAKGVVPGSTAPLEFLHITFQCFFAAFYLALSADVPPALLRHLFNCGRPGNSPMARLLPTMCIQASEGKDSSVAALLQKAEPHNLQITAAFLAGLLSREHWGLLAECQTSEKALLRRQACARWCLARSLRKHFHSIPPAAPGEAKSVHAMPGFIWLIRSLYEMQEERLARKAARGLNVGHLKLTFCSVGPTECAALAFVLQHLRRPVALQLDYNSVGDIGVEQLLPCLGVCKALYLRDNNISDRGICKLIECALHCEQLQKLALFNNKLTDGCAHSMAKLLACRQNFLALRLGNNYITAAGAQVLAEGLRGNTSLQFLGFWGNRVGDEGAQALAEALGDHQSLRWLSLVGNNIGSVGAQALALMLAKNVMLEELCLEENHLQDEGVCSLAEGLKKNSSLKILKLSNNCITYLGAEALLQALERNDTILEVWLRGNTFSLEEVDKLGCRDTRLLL
Test [4] has as its system HEK293. Kind of test: NOD1 signaling inhibitors, primary screen, cell-based, luminescence, uHTS (AID 1578). Format: functional. Conditions: Homo sapiens.
Test [5] concerns HEK293. Kind of test: cells. Format: functional, cell-based. Particulars: Homo sapiens.
For test [6], the system named is HEK293. Kind of test: cells. Format: functional, cell-based. Conditions: Homo sapiens. The source holds these as a separate data set.
The test system of test [7] is HEK293. Kind of test: cells. Conditions: Homo sapiens. In kind it is functional, cell-based. This is another data set of the same source.
Another test has as its system INS1. Description: beta cell apoptosis inhibitors, cytokine rescue, dose response, luminescence, retest (AID 449756).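 Further: cell death triggered by IL-1 beta plus TNF-alpha plus IFN-gamma mixture; protective hits raise ATP signal compared with cytokine alone wells.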 Format: functional, cell-based. Particulars: Rattus norvegicus.
In another test the test system is Streptococcus. Kind of test: Group A Streptococcus viability loss, dose response, counter-screen for streptokinase expression inhibitor project, luminescence, BacTiterGlo (AID 1915).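 Further: potency for reduction of bacterial viability or growth.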 Format: functional, organism-based. (The purpose of a counterscreen is to sort out artefacts and off-target activity.)
Test [8] is described as follows: cells. In kind it is functional, cell-based.
Test [9] is described as follows: cytotoxicity toward NIH3T3 fibroblasts, dose response, counter-screen, cell-based, ATP luminescence, mouse fibroblasts (AID 2010).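 Further: cells exposed to compound for about 90 hours before reading.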 In kind it is functional.
Test [10] relates to Streptococcus sp. 'group A'. Description: growth inhibition of control SK(-) GAS strain, dose response, counter-screen for streptokinase expression inhibitor project, luminescence, kanamycin, BacTiterGlo, confirmation (AID 1900). Format: functional, organism-based.
Test [11] can be described thus: Luminescence Cell-Based Dose Retest to Confirm Inhibitors of Cancer Stem Cells. [Related pubchem assays (depositor defined):AID2717, AID2721]. In kind it is functional. Conditions: Homo sapiens.
The nature of test [12]: inhibitors of intracellular T. cruzi replication, confirmation, NIH3T3 host cells, beta-gal luminescence (AID 2044).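 Further: intracellular parasites grown in NIH/3T3 mouse fibroblasts as host cells; luminescent beta-galactosidase reporter signal from transgenic T. cruzi replicating inside host cells; inhibitors lower the luminescence signal.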 In kind it is functional, cell-based.
The nature of test [13]: cells. In kind it is functional, cell-based. The source holds these as a separate data set.
The next test addresses T2, Exodeoxyribonuclease V (Escherichia coli (strain K12), UniProt P04993+P07648+P08394).
T2 sequence (P04993 whole entry): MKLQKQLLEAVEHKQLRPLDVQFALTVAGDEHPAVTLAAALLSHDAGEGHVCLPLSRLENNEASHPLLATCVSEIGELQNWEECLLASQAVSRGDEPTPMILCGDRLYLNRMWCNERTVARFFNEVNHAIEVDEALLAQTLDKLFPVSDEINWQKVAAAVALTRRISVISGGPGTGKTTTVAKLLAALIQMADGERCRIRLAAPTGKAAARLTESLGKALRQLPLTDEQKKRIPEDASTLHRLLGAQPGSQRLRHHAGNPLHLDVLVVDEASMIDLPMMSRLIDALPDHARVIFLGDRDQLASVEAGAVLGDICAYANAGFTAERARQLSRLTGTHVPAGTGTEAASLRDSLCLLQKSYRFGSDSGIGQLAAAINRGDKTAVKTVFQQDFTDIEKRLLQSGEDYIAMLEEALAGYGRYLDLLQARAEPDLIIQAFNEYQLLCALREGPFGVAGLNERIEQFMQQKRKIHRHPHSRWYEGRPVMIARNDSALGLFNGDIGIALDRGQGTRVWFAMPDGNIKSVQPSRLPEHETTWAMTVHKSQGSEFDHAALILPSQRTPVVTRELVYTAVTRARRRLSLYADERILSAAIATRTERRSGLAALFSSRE
T2 sequence (P07648 whole entry): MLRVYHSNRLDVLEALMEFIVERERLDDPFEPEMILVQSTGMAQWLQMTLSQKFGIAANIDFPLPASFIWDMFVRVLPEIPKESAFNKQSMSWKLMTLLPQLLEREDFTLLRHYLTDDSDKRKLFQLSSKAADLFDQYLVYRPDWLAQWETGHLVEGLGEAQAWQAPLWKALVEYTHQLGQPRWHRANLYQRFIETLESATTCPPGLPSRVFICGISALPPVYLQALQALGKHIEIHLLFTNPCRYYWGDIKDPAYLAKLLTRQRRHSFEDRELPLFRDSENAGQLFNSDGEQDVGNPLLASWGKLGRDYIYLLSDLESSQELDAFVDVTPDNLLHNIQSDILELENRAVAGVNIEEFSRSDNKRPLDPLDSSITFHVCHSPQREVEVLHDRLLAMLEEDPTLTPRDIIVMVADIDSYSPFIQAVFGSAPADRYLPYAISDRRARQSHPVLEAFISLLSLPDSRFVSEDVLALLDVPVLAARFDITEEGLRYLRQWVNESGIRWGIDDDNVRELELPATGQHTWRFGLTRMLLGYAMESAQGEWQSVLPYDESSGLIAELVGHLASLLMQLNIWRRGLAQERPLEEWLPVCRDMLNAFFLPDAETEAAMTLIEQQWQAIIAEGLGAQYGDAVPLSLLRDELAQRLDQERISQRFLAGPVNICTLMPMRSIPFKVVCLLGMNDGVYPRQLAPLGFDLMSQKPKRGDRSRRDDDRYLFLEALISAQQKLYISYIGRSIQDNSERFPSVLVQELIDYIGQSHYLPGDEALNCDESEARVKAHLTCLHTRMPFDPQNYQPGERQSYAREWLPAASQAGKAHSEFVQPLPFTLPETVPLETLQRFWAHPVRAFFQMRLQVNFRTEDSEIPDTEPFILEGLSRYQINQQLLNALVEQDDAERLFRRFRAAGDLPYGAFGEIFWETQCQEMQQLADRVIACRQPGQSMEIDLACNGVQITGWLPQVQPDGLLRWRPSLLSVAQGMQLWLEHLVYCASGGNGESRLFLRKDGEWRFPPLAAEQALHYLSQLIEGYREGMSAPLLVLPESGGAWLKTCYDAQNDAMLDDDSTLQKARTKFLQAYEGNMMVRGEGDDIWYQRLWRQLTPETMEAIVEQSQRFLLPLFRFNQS
T2 sequence (P08394 whole entry): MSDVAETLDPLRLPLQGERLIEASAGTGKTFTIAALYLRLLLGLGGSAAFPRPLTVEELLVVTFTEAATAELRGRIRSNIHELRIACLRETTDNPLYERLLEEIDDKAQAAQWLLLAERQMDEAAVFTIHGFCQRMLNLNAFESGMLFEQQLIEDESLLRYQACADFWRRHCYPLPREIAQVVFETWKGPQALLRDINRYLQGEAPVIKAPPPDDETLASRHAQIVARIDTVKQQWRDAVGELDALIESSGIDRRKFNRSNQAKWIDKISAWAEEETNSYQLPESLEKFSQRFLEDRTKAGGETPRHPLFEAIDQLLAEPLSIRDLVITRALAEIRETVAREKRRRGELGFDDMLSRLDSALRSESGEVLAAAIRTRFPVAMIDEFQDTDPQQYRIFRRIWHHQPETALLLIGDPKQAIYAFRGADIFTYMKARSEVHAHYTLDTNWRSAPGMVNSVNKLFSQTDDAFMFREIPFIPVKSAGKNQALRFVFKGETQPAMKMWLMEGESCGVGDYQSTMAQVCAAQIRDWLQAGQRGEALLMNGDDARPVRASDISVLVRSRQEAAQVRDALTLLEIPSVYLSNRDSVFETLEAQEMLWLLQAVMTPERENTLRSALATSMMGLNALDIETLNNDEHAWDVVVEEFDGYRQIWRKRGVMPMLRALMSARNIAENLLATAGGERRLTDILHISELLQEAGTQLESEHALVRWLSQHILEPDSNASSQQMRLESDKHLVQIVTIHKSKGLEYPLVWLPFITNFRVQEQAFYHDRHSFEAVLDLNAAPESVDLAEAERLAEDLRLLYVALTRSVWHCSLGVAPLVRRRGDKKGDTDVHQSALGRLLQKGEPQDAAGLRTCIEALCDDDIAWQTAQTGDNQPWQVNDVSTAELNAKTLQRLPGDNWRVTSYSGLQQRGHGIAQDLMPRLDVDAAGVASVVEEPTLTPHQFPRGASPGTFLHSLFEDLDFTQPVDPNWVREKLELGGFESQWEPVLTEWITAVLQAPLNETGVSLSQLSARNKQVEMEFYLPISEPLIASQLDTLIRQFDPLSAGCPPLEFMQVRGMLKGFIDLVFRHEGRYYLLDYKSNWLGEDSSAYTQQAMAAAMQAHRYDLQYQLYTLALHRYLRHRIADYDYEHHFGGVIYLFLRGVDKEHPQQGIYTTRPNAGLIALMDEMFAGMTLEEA
Description: E. coli RecBCD inhibitors, dose response, counter-screen for AddAB inhibitor project, absorbance, V66 E. coli, mutant T4 phage (AID 492957). In kind it is functional, cell-based, Escherichia coli str. K-12 substr. MG1655.

Test [14] is described as follows: Counterscreen for AddAB inhibitors: absorbance-based bacterial cell-based high throughput dose response assay for inhibitors of bacterial viability. [Related pubchem assays (depositor defined):AID435030, AID449728, AID449731, AID488942, AID488955, AID488956]. In kind it is functional.
Test [15] has as its target Heat shock protein HSP 90-alpha (Homo sapiens, UniProt P07900). Format: functional, organism-based.
In test [16] the target is T3, Short transient receptor potential channel 4 (Mus musculus, UniProt Q9QUQ5).
T3 sequence (Q9QUQ5 whole entry): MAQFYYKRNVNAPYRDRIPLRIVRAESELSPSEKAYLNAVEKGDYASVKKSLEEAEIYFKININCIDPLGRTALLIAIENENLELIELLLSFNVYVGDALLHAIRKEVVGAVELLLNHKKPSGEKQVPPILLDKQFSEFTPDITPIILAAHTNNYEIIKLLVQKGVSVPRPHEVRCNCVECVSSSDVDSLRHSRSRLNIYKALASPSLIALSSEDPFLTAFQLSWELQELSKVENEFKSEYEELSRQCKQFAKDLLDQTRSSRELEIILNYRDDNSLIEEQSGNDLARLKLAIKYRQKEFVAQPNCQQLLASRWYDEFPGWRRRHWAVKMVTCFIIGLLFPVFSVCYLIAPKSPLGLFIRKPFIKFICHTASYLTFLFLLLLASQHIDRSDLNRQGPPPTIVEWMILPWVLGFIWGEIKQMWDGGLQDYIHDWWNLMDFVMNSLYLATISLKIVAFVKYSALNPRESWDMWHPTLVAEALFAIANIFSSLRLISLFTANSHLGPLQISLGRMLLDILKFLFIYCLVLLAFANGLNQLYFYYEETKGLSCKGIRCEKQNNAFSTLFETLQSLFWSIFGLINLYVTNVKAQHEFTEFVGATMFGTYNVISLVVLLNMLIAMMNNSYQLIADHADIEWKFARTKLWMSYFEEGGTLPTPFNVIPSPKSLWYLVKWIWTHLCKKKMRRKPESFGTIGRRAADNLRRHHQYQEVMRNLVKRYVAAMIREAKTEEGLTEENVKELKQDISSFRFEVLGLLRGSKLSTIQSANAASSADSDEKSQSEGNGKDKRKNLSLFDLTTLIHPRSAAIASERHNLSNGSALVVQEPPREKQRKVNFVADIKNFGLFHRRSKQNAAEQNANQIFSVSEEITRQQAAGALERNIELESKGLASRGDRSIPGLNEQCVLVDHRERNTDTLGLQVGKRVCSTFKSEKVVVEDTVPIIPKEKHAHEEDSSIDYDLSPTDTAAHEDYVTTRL
Description: mouse TRPC4 channel inhibitors, dose response, cell-based, HEK293 TRPC4/mu-opioid, Fluo-4 calcium (AID 434942).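 Further: potency of inhibitors blocking the TRPC4 calcium response.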 Format: functional.

Active and inactive are the calls of the source.

Data on three compounds can be found in ChEMBL document CHEMBL1201862, “PubChem BioAssay data set” (2004).

Turning to `CCS(=O)(=O)C1=NN2C(=N)/C(=C\c3ccc(OCCOc4cccc(OC)c4)c(OC)c3)C(=O)N=C2S1`, the IC50 was > 20 µM (inactive) in the test on HEK293 [1]; 4.26 µM (active) in [2]; > 20 µM (inactive) in the test on HEK293 [5]; > 20 µM (inactive) with HEK293 [6]; > 20 µM (inactive) in the test with HEK293 [7]. The EC50 is 3.32 µM (active) in test [3] and > 20 µM (inactive) with HEK293 [4].

Regarding `CCCC(=O)NC(c1ccc2c(c1)OCO2)c1cc(Cl)c2cccnc2c1O` (stereo not given), the AC50 is 1.03 µM (active) in the test with INS1, 3.06 µM (active) in test [11] and 3.41 µM (active) in [15]. Moreover, the half-maximal effective concentration (EC50) was 7.69 µM (active) in the test with Streptococcus; > 350 µM (not active) in the test “cells [8]”; 2.21 µM (active) in test [9]; 4.09 µM (active) in test [10]; 0.912 µM (active) in test [12]; 47.7 µM (active) in the test “cells [13]”. In addition, the IC50 (at Exodeoxyribonuclease V; in test [14]) was > 119 µM (inactive) in each case.

Consider `Cc1nc(N2CCN(c3ccccn3)CC2)c2c(C)c(C(=O)N3CCN(c4ccccc4F)CC3)sc2n1`, for which the IC50 in the test with HEK293 [1] is 7.16 µM (inactive); in the test with HEK293 [5], 6.62 µM (active); in the test with HEK293 [6], 11 µM (active); with HEK293 [7] it was > 20 µM (inactive). Further, the EC50 was 1.68 µM (active) in test [16], 5.07 µM (active) in test [3] and 6.4 µM (active) in the test with HEK293 [4].

Broadly, the IC50 is the concentration that gives 50% inhibition. What is called EC50 is the concentration giving half of the maximal effect. By AC50 is commonly meant the midpoint of the concentration-response curve, whichever way the signal moves.
